How the values were obtained:
[1] = biological target: T1, DDR2 (Homo sapiens, UniProt Q16832); test: DDR2 binding assay (LanthaScreen Europium Kinase Binding assay); parameters: purchased Life Technologies; conditions: 5 nM DDR2, 10 nM Kinase Tracer 178, 1 hour at room temperature; Ki from IC50 by Cheng-Prusoff
T1 sequence (Q16832 22-855): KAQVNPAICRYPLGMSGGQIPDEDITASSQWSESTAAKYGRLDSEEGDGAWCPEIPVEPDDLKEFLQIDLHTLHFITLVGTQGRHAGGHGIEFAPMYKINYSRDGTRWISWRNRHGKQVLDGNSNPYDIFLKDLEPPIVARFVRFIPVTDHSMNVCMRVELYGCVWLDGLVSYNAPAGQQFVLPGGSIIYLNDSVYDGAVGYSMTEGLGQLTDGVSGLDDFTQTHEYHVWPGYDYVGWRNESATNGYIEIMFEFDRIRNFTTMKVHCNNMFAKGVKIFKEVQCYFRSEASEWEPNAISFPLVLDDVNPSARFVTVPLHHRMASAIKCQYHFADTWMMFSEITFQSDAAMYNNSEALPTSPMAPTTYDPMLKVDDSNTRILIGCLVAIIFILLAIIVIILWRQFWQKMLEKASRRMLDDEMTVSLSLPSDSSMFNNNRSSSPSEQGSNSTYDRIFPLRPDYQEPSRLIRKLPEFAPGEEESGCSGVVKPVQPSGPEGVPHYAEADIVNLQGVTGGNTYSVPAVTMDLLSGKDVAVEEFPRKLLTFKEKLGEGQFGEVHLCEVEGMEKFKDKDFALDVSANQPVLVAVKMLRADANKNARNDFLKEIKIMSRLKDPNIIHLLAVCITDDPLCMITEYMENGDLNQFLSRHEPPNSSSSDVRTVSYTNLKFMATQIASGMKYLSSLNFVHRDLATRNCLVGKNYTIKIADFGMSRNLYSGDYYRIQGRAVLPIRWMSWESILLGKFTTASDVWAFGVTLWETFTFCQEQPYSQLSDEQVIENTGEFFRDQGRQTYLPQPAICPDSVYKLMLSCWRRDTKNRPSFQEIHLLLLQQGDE
Method: (§1) DDR1 and DDR2 binding assays were performed using Life Technologies LanthaScreen™ Europium Kinase Binding assay. The compounds were incubated with 5 nM DDR1 (Carna Biosciences) or 5 nM DDR2 (Life Technologies) for 1 hour at room temperature in white 384-well OptiPlate (PerkinElmer), containing 20 nM or 10 nM Kinase Tracer 178 respectively and 2 nM Europium labelled anti-GST antibody (Life Technologies) in assay buffer (50 mM HEPES pH 7.5, 10 mM MgCl2, 1 mM EGTA and 0.01% BRIJ35).
(§2) The ratio of fluorescence emission 665 nm/615 nm after excitation at 340 nm was obtained using the Tecan Spark 20M plate reader. IC50 values were determined in GraphPad Prism 7.0 software, using 4 parameter model: log(inhibitor) vs. response. IC50 values were converted in Ki using the Cheng-Prusoff equation (Ki=IC50/(1+[Tracer]/Kd).

[2] = biological target: DDR1 (Homo sapiens, UniProt Q08345); test: DDR1 binding assay (LanthaScreen Europium Kinase Binding assay); parameters: purchased Carna Biosciences; conditions: 5 nM DDR1, 20 nM Kinase Tracer 178, 1 hour at room temperature; Ki from IC50 by Cheng-Prusoff
Method: as §1, §2

Sequence of DDR1 (Q08345 19-913): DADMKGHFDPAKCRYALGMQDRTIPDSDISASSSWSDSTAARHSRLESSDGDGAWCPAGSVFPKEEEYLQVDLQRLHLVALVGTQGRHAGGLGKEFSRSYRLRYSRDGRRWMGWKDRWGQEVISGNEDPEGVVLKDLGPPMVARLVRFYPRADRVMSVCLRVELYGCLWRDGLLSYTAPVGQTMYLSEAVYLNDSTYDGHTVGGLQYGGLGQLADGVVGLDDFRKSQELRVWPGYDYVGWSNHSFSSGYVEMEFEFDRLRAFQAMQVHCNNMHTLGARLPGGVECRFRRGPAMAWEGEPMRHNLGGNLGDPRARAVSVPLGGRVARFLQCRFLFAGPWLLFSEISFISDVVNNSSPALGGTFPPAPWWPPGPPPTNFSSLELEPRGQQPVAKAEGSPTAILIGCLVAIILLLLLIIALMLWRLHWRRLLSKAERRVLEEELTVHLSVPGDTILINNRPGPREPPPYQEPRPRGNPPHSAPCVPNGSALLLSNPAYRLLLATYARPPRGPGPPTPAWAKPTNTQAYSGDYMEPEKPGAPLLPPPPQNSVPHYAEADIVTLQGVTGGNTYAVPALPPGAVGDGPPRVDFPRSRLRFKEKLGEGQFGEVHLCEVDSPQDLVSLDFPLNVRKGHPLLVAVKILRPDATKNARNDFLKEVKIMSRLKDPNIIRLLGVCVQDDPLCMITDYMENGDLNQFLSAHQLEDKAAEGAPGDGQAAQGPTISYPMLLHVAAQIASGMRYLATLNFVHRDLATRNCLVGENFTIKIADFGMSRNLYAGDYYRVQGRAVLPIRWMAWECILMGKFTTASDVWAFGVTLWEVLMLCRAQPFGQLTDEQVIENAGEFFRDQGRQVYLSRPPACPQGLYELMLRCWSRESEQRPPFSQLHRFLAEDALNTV

| Ki [1] [nM] | Ki [2] [nM] | Compound |
| --- | --- | --- |
| < 30 | < 30 | Cc1cn(-c2cc(NC(=O)c3ccc(C)c(CNc4cnc5ccnn5c4)c3)cc(C(F)(F)F)c2)cn1 [Example 1, 4-methyl-N-(3-(4-methyl-1H-imidazol-1-yl)-5-(trifluoromethyl)phenyl)-3-((pyrazolo[1,5-a]pyrimidin-6-ylamino)methyl)benzamide] |
| 300 to 1000 | < 30 | CCN(Cc1cc(C(=O)Nc2cc(-n3cnc(C)c3)cc(C(F)(F)F)c2)ccc1C)c1cnc2ccnn2c1 [Example 2, 3-((ethyl(pyrazolo[1,5-a]pyrimidin-6-yl)amino)methyl)-4-methyl-N-(3-(4-methyl-1H-imidazol-1-yl)-5-(trifluoromethyl)phenyl)benzamide] |
| 30 to 300 | 30 to 300 | Cc1cn(-c2cc(NC(=O)c3ccc(C)c(CNc4ccc5ncsc5c4)c3)cc(C(F)(F)F)c2)cn1 [Example 3, 3-((benzo[d]thiazol-6-ylamino)methyl)-4-methyl-N-(3-(4-methyl-1H-imidazol-1-yl)-5-(trifluoromethyl)phenyl)benzamide] |
| 30 to 300 | 30 to 300 | Cc1cn(-c2cc(NC(=O)c3ccc(C)c(CNc4ccc5[nH]ncc5c4)c3)cc(C(F)(F)F)c2)cn1 [Example 4, 3-(((1H-indazol-5-yl)amino)methyl)-4-methyl-N-(3-(4-methyl-1H-imidazol-1-yl)-5-(trifluoromethyl)phenyl)benzamide] |
| < 30 | < 30 | Cc1cn(-c2cc(NC(=O)c3ccc(C)c(CNc4cnc5[nH]ccc5c4)c3)cc(C(F)(F)F)c2)cn1 [Example 5, 3-(((1H-pyrrolo[2,3-b]pyridin-5-yl)amino)methyl)-4-methyl-N-(3-(4-methyl-1H-imidazol-1-yl)-5-(trifluoromethyl)phenyl)benzamide] |
| 300 to 1000 | 300 to 1000 | Cc1cn(-c2cc(NC(=O)c3ccc(C)c(CNC4CNc5ccnn5C4)c3)cc(C(F)(F)F)c2)cn1 (stereo not shown) [Example 6, 4-methyl-N-(3-(4-methyl-1H-imidazol-1-yl)-5-(trifluoromethyl)phenyl)-3-(((4,5,6,7-tetrahydropyrazolo[1,5-a]pyrimidin-6-yl)amino)methyl)benzamide] |
| 30 to 300 | 30 to 300 | Cc1cn(-c2cc(NC(=O)c3ccc(C)c(CNc4ccnc(C#N)c4)c3)cc(C(F)(F)F)c2)cn1 [Example 7, 3-(((2-cyanopyridin-4-yl)amino)methyl)-4-methyl-N-(3-(4-methyl-1H-imidazol-1-yl)-5-(trifluoromethyl)phenyl)benzamide] |
| 30 to 300 | 30 to 300 | Cc1cn(-c2cc(NC(=O)c3ccc(C)c(CNc4ccc(C#N)cn4)c3)cc(C(F)(F)F)c2)cn1 [Example 8, 3-(((5-cyanopyridin-2-yl)amino)methyl)-4-methyl-N-(3-(4-methyl-1H-imidazol-1-yl)-5-(trifluoromethyl)phenyl)benzamide] |
| < 30 | < 30 | Cc1ccc(NC(=O)c2cc(CN3CCN(C)CC3)cc(C(F)(F)F)c2)cc1CNc1cncnc1 [Example 9, N-(4-methyl-3-((pyrimidin-5-ylamino)methyl)phenyl)-3-((4-methylpiperazin-1-yl)methyl)-5-(trifluoromethyl)benzamide] |
| 30 to 300 | < 30 | CNC(=O)c1cc(NCc2cc(NC(=O)c3cc(CN4CCN(C)CC4)cc(C(F)(F)F)c3)ccc2C)ccn1 [Example 10, N-methyl-4-((2-methyl-5-(3-((4-methylpiperazin-1-yl)methyl)-5-(trifluoromethyl)benzamido)benzyl)amino)picolinamide] |
| 300 to 1000 | 300 to 1000 | Cc1ccc(NC(=O)c2cc(CN3CCN(C)CC3)cc(C(F)(F)F)c2)cc1CNCc1cncnc1 [Example 11, N-(4-methyl-3-(((pyrimidin-5-ylmethyl)amino)methyl)phenyl)-3-((4-methylpiperazin-1-yl)methyl)-5-(trifluoromethyl)benzamide] |
